Results taken from patent US20260199309A1, “COMPOUNDS FOR THE TREATMENT OF CENTRA NERVOUS SYSTEM DISORDERS” (Autifony Therapeutics Limited, priority 2022, published 2026).
pEC50: −log10 of the molar value. Read-outs that look alike come from different tables or passages of the source.

Molecular target: T1, human Kv3.1 channels (hKv3.1) (Homo sapiens, UniProt P48547)
T1 construct: expressed in transfected cells
T1 sequence (P48547 1-511): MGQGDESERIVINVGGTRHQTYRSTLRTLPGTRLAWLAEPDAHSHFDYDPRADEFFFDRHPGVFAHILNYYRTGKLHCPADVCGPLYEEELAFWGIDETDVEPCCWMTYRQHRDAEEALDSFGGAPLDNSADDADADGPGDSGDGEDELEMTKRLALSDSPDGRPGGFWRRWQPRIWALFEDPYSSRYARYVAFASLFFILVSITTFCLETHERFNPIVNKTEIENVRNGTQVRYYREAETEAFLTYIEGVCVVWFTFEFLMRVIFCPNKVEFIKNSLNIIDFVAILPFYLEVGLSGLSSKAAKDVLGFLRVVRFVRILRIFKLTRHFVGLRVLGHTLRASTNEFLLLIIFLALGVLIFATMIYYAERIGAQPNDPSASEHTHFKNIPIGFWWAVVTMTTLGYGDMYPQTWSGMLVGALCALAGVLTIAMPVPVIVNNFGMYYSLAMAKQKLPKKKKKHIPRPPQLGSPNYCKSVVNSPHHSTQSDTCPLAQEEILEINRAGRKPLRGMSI
Experiment: Kv3.1 channel modulation, IonWorks Quattro planar array electrophysiology
Assay type: cell-based
Details: for EC50 / Kv3.1 pEC50 / Kv3.1 max R %: HEK-293 cells expressing human Kv3.1; for EC50 / Kv3.1 pEC50: currents at −15 mV voltage step, normalised to 50 microM reference compound and vehicle; for EC50: read-out: Kv3.1 pEC50 (converted); for Kv3.1 max R %: normalised to maximum effect of 50 microM reference compound

Row | Compound | EC50 [nM] | Kv3.1 pEC50 | Kv3.1 max R % [%] | pEC50
1 | CC[C@H]1NC(=O)N(c2ccc(Oc3ccc(C)c(OC(F)(F)F)c3)nc2C)C1=O [Reference Example 17, reference compound] | 5010 | – | – | –
2 | CC[C@H]1NC(=O)N(c2ccc(Oc3ccc(C#N)c(C(C)C)c3)nc2N)C1=O [Example 13, 4-[[6-amino-5-[(4R)-4-ethyl-2,5-dioxo-imidazolidin-1-yl]-2-pyridyl]oxy]-2-isopropyl-benzonitrile] | 3160 | 5.5 | 161 | –
3 | Cc1ccc(Oc2ccc(N3C(=O)NC(C)(C)C3=O)c(N)n2)cc1OC(F)(F)F [Example 7, 3-[2-amino-6-[4-methyl-3-(trifluoromethoxy)phenoxy]-3-pyridyl]-5,5-dimethyl-imidazolidine-2,4-dione] | 2510 | 5.6 | 135 | –
4 | COc1nc(Oc2cccc3c2C2(CC2)CO3)ccc1N1C(=O)NC(C)(C)C1=O [Reference Example 5, reference compound] | 3980 | – | – | –
5 | CC[C@H]1NC(=O)N(c2ccc(Oc3ccc(C#N)c(C(C)C)c3)nc2)C1=O [Reference Example 19, reference compound] | 1260 | – | – | –
6 | CC[C@H]1NC(=O)N(c2ccc(Oc3ccc(C)c(OC(F)(F)F)c3)nc2N)C1=O [Example 8, (5R)-3-[2-amino-6-[4-methyl-3-(trifluoromethoxy)phenoxy]-3-pyridyl]-5-ethyl-imidazolidine-2,4-dione] | 3160 | 5.5 | 137 | –
7 | Cc1ccc(Oc2ccc(N3C(=O)NC(C)(C)C3=O)c(C)n2)cc1OC(F)(F)F [Reference Example 8, reference compound] | 6310 | – | – | –
8 | Cc1ccc(Oc2ccc(N3C(=O)NC(C)(C)C3=O)c(N)n2)c2c1OCC2(C)C [Example 14, 3-[2-amino-6-[(3,3,7-trimethyl-2H-benzofuran-4-yl)oxy]-3-pyridyl]-5,5-dimethyl-imidazolidine-2,4-dione] | 501 | – | 165 | –
9 | CC1(C)NC(=O)N(c2ccc(Oc3cccc4c3C3(CC3)CO4)nc2)C1=O [Reference Example 4, reference compound] | 31600 | – | – | –
10 | CC[C@H]1NC(=O)N(c2ccc(Oc3ccc(C)c4c3C3(CC3)CO4)nc2OC)C1=O [Reference Example 11, reference compound] | 1260 | – | – | –
11 | CC[C@H]1NC(=O)N(c2ccc(Oc3ccc(C)c(OC(F)(F)F)c3)nc2OC)C1=O [Reference Example 16, reference compound] | 7940 | – | – | –
12 | Cc1ccc(Oc2ccc(N3C(=O)NC(C)(C)C3=O)cn2)c2c1OCC21CC1 [Reference Example 1, reference compound] | – | – | – | 5.60
13 | CC[C@H]1NC(=O)N(c2ccc(Oc3ccc(C)c4c3C3(CC3)CO4)nc2C)C1=O [Reference Example 12, reference compound] | 631 | – | – | –
14 | CC(C)c1cc(Oc2ccc(N3C(=O)NC(C)(C)C3=O)c(N)n2)ccc1C#N [Example 12, 4-[[6-amino-5-(4,4-dimethyl-2,5-dioxo-imidazolidin-1-yl)-2-pyridyl]oxy]-2-isopropyl-benzonitrile] | 2000 | – | 175 | –
15 | COc1cccc(Oc2ccc(N3C(=O)NC(C)(C)C3=O)c(N)n2)c1 [Example 6, 3-[2-amino-6-(3-methoxyphenoxy)-3-pyridyl]-5,5-dimethyl-imidazolidine-2,4-dione] | 12600 | – | 89 | –
16 | CC1(C)NC(=O)N(c2ccc(Oc3ccc(C#N)c(OC(F)(F)F)c3)nc2N)C1=O [Example 10, 4-[[6-amino-5-(4,4-dimethyl-2,5-dioxo-imidazolidin-1-yl)-2-pyridyl]oxy]-2-(trifluoromethoxy)benzonitrile] | 2510 | 5.6 | 113 | –
17 | CC[C@H]1NC(=O)N(c2ccc(Oc3ccc(C)c(OC(F)(F)F)c3)nc2)C1=O [Reference Example 15, reference compound] | 2510 | – | – | –
18 | Cc1ccc(Oc2ccc(N3C(=O)NC(C)(C)C3=O)cn2)cc1OC(F)(F)F [Reference Example 6, reference compound] | – | – | – | 5.00
19 | COc1nc(Oc2ccc(C)c(OC(F)(F)F)c2)ccc1N1C(=O)NC(C)(C)C1=O [Reference Example 7, reference compound] | 12600 | – | – | –
20 | CC[C@H]1NC(=O)N(c2ccc(Oc3ccc(C)c4c3C3(CC3)CO4)nc2N)C1=O [Example 2, (5R)-3-[2-amino-6-(7-methylspiro[2H-benzofuran-3,1′-cyclopropane]-4-yl)oxy-3-pyridyl]-5-ethyl-imidazolidine-2,4-dione] | 501 | 6.3 | 161 | –
21 | CC1(C)NC(=O)N(c2ccc(Oc3cccc4c3C3(CC3)CO4)nc2N)C1=O [Example 3, 3-(2-amino-6-spiro[2H-benzofuran-3,1′-cyclopropane]-4-yloxy-3-pyridyl)-5,5-dimethyl-imidazolidine-2,4-dione] | 501 | 6.3 | 159 | –
22 | CC[C@H]1NC(=O)N(c2ccc(Oc3cccc4c3C3(CC3)CO4)nc2N)C1=O [Example 4, (5R)-3-(2-amino-6-spiro[2H-benzofuran-3,1′-cyclopropane]-4-yloxy-3-pyridyl)-5-ethyl-imidazolidine-2,4-dione] | 1000 | 6.0 | 159 | –
23 | CC[C@H]1NC(=O)N(c2ccc(Oc3ccc(C#N)c(OC(F)(F)F)c3)nc2OC)C1=O [Reference Example 18, reference compound] | 10000 | – | – | –
24 | Cc1ccc(Oc2ccc(N3C(=O)NC(C)(C)C3=O)c(C)n2)c2c1OCC21CC1 [Reference Example 3, reference compound] | 1580 | – | – | –
25 | CC1(C)NC(=O)N(c2ccc(Oc3cccc4c3C(C)(C)CO4)nc2N)C1=O [Example 5, 3-[2-amino-6-[(3,3-dimethyl-2H-benzofuran-4-yl)oxy]-3-pyridyl]-5,5-dimethyl-imidazolidine-2,4-dione] | 631 | – | 152 | –
26 | CC[C@H]1NC(=O)N(c2ccc(Oc3cccc4c3C3(CC3)CO4)nc2OC)C1=O [Reference Example 14, reference compound] | 2000 | – | – | –
27 | COc1nc(Oc2ccc(C#N)c(OC(F)(F)F)c2)ccc1N1C(=O)NC(C)(C)C1=O [Reference Example 9, reference compound] | 12600 | – | – | –
28 | CC[C@H]1NC(=O)N(c2ccc(Oc3ccc(C#N)c(OC(F)(F)F)c3)nc2N)C1=O [Example 11, 4-[[6-amino-5-[(4R)-4-ethyl-2,5-dioxo-imidazolidin-1-yl]-2-pyridyl]oxy]-2-(trifluoromethoxy)benzonitrile] | 3160 | 5.5 | 161 | –
